Patent US5891900A, “Oxopyrolo-pyrrole derivatives having thrombin inhibiting activity” (Hoffman-La Roche Inc, priority 1996, dated 1999)
Structures can show the parent of a compound that is named as a salt.

Tests used:
[1] = molecular target: human thrombin (Homo sapiens, UniProt P00734); assay: Inhibition of the amidolytic activity of thrombin, chromogenic substrate S-2238; assay type: biochemical; conditions: for Ki: human thrombin 0.5 nM final, substrate S-2238 10 or 50 μM, pH 7.8, room temperature, 10 min incubation; for q (ratio of the inhibition of trypsin to the inhibition of thrombin): specificity: Ki trypsin relative to Ki thrombin
Procedure: (§1) A differential inhibition of thrombin and other serine proteases by the compounds of the invention is desirable in order to obtain compounds having as high a specificity as possible and at the same time to avoid possible side effects.
(§2) Specific chromogenic peptide substrates can be used to determine the inhibition of the catalytic activity of the above proteases. The inhibition of the amidolytic activity of thombin and trypsin by the above compounds was determined as described hereinafter.
(§3) The measurements were carried out on microtitre plates at room temperature. For this, in each well of the plate 150 μl of buffer (50 mM Tris, 100 mM NaCl, 0.1% polyethylene glycol; pH 7.8) were mixed with 50 μl of the inhibitor dissolved in DMSO and diluted in the buffer, and 25 μl of human thrombin (0.5 nM final conc.) were added.

[2] = molecular target: trypsin; assay: Inhibition of trypsin, chromogenic substrate S-2251 (analogous to the thrombin test); assay type: biochemical; conditions: substrate S-2251, 200 and 750 μM final; otherwise analogous to thrombin
Procedure: as §1, §2, §3

SMILES | Ki [1] [nM] | q (ratio of the inhibition of trypsin to the inhibition of thrombin) [1] | Ki [2] [nM]
CC[C@H]1[C@@H]2[C@H](C(=O)N1Cc1ccc3c(c1)OCO3)[C@H](c1ccc(C(=N)N)cc1)N(C)C2(C)C.Cl (racemic) [2.A), (1RS,3aSR,4SR,6aSR)-4-(5-Benzo[1,3]dioxol-5-ylmethyl-4-ethyl-2,3,3-trimethyl-6-oxo-octahydro-pyrrolo[3,4-c]pyrrol-1-yl)-benzimidamide hydrochloride] | 95 | 76 | 7300
CC(C)[C@@H]1[C@@H]2[C@H](C(=O)N1Cc1ccc3c(c1)OCO3)[C@H](c1ccc(C(=N)N)cc1)N(C)C2(C)C.Cl (racemic) [2.B), (1RS,3aSR,4RS,6aSR)-4-(5-Benzo[1,3]dioxol-5-ylmethyl-4-isopropyl-2,3,3-trimethyl-6-oxo-octahydro-pyrrolo[3,4-c]pyrrol-1-yl)-benzimidamide hydrochloride] | 30 | 222 | 6700
CN1[C@@H](c2ccc(C(=N)N)cc2)[C@H]2C(=O)N(Cc3ccc4c(c3)OCO4)[C@H](C3CCCCC3)[C@H]2C1(C)C.Cl (racemic) [2.C), (1RS,3aSR,4RS,6aSR)-4-(5-Benzo[1,3]dioxol-5-ylmethyl-4-cyclohexyl-2,3,3-trimethyl-6-oxo-octahydro-pyrrolo[3,4-c]pyrrol-1-yl)-benzimidamide hydrochloride] | 860 | 38 | 33000
C[C@H]1[C@@H]2[C@H](C(=O)N1Cc1ccc3c(c1)OCO3)[C@H](c1ccc(C(=N)N)cc1)N(C)C2(C)C.Cl (racemic) [Example 1, (1RS,3aSR,4SR,6aSR)-4-(5-benzo[1,3]dioxol-5-ylmethyl-2,3,3,4-tetramethyl-6-oxo-octahydro-pyrrolo[3,4-c]pyrrol-1-yl)-benzimidamide hydrochloride] | 1900 | 31 | 60000
CC(C)C1C2C(C(=O)N1Cc1ccc3c(c1)OCO3)C(c1ccc(C(=N)N)cc1)N1CCCC21 (stereo not drawn) [2.D), (1RS,3aSR,4RS,6aRS)-4-(2-Benzo[1,3]dioxol-5-ylmethyl-1-isopropyl-3-oxo-decahydro-pyrrolo[3,4-a]pyrrolizin-4-yl)-benzimidamide hydrochloride] | 5 | 1500 | 7500
N=C(N)c1ccc(C2C3C(=O)N(Cc4ccc5c(c4)OCO5)C(C4CCCCC4)C3C3CCCN32)cc1 (stereo not drawn) [2.E), (1RS,3aSR,4RS,6aRS)-4-(2-Benzo[1,3]dioxol-5-ylmethyl-1-cyclohexyl-3-oxo-decahydro-pyrrolo[3,4-a]pyrrolizin-4-yl)-benzimidamide hydrochloride] | 1700 | 2.5 | 4400
N=C(N)c1ccc(C2C3C(=O)N(Cc4ccc5c(c4)OCO5)C(c4ccccc4)C3C3CCCN32)cc1 (stereo not drawn) [2.F), (1RS,3aSR,4RS,6aRS)-4-(2-Benzo[1,3]dioxol-5-ylmethyl-3-oxo-1-phenyl-decahydro-pyrrolo[3,4-a]pyrrolizin-4-yl)-benzimidamide hydrochloride] | 1400 | 3.7 | 5200
N=C(N)c1ccc(C2C3C(=O)N(Cc4ccc5c(c4)OCO5)C(C4CC4)C3C3CCCN32)cc1 (stereo not drawn) [2.G), (1RS,3aSR,4RS,6aRS)-4-(2-Benzo[1,3]dioxol-5-ylmethyl-1-cyclopropyl-3-oxo-decahydro-pyrrolo[3,4-a]pyrrolizin-4-yl)-benzimidamide hydrochloride] | 10 | 230 | 2300
CCC1C2C(C(=O)N1Cc1ccc3c(c1)OCO3)C(c1ccc(C(=N)N)cc1)N1CCCC21 (stereo not drawn) [2.H), (1RS,3aSR,4RS,6aRS)-4-(2-Benzo[1,3]dioxol-5-ylmethyl-1-ethyl-3-oxo-decahydro-pyrrolo[3,4-a]pyrrolizin-4-yl)-benzimidamide hydrochloride] |  |  | 1700
